The results in this text go back to ChEMBL document CHEMBL1140601, “Quantitative structure-activity relationship (QSAR) of tacrine derivatives against acetylcholinesterase (AChE) activity using variable selections” (Bioorg Med Chem Lett, 2007).

The target in the assay is Acetylcholinesterase (Homo sapiens) (UniProt P22303).
Chain of Acetylcholinesterase (Homo sapiens) (P22303 whole entry): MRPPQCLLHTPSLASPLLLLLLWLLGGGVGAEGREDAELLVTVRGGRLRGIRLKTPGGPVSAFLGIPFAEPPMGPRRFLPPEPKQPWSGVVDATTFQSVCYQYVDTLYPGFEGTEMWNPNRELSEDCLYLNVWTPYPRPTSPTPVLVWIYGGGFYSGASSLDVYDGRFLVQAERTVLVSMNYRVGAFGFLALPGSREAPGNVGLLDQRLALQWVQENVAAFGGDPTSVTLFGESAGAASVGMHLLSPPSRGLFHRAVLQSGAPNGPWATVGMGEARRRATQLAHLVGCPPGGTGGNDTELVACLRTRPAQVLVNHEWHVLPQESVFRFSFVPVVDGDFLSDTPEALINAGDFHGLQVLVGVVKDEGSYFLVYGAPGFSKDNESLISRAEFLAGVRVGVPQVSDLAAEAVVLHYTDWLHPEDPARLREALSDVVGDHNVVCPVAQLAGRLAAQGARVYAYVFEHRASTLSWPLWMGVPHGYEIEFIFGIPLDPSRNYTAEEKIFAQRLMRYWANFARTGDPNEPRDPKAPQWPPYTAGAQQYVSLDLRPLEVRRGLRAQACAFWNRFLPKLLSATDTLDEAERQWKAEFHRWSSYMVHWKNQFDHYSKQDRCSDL

Description: Inhibition of AchE relative to tacrine

The compound `CCOC(=O)C1=C(C)Oc2nc3c(c(N)c2C1c1ccc(OC)c(OC)c1)CCC3` (stereo unspecified) registered a logRA of -2.18.

In turn, `CCOC(=O)c1c(C)nc2nc3c(c(N)c2c1-c1ccncc1)CCCC3` yielded a logRA of -1. Consider `CCOC(=O)C1=C(C)Oc2nc3c(c(N)c2C1c1ccncc1)CCCC3` (stereo unspecified), for which the logRA was -1.33. To `Fc1ccc2c(NCCCCCCNc3c4c(nc5cc(F)ccc35)CCCC4)c3c(nc2c1)CCCC3` belongs 2.57. Under `CCOC(=O)c1c(C)nc2nc3c(c(N)c2c1-c1ccccc1)CCC3` stands -1.96. Take `CCOC(=O)C1=C(C)Oc2nc3c(c(N)c2C1c1cccnc1)CCCC3` (stereo unspecified): the logRA was -1.71.

Consider `CCOC(=O)C1=C(C)Oc2nc3c(c(N)c2C1c1ccc(OC)cc1)CCCC3` (stereo unspecified), for which the logRA was -0.825.

On to `CCOC(=O)C1=C(C)Oc2nc3c(c(N)c2C1c1ccc(OC)c(OC)c1)CCCC3` (stereo unspecified), for which the logRA is -1.41.

Consider `CCOC(=O)c1c(C)nc2nc3c(c(N)c2c1-c1ccncc1)CCCCC3`, for which the logRA was -1.56. As for `CC1=CC2Cc3nc4cc(Cl)ccc4c(NCCCCCCCCNc4c5c(nc6ccccc46)CCCC5)c3C(C1)C2` (stereo unspecified), the logRA is 2.79. To `CCOC(=O)c1c(C)nc2nc3c(c(N)c2c1-c1cccn1C(C)=O)CCCC3` belongs -1.08. Under `CCOC(=O)C1=C(C)Oc2nc3c(c(N)c2C1c1ccccc1OC)CCC3` (stereo unspecified) stands -2.12; under `CC1=CC2Cc3nc4ccccc4c(NCCCCCCCCNc4c5c(nc6ccccc46)CCCC5)c3C(C1)C2` (stereo unspecified), 2.4. To `CC1=CC2Cc3nc4cc(Cl)ccc4c(NCCCN(C)CCCNc4c5c(nc6cc(Cl)ccc46)CCCC5)c3C(C1)C2` (stereo unspecified) belongs 2.85. Turning to `CCOC(=O)C1=C(C)Oc2nc3c(c(N)c2C1c1ccccc1OC)CCCCC3` (stereo unspecified), the logRA is -2.07. Under `Cc1ccc2c(c1)-c1nc3ccccc3c(N)c1C2` stands -1.26; under `c1ccc2c(NCCCCCCCNc3c4c(nc5ccccc35)CCCC4)c3c(nc2c1)CCCC3`, 2.41. The compound `O=C(CNc1c2c(nc3ccccc13)CCCC2)NCCC1CCN(c2ccccc2)CC1` had a logRA of 1.57. `CCOC(=O)c1c(C)nc2nc3c(c(N)c2c1-c1ccc(F)cc1)CCCCC3` gave a logRA of -1.48. Compound `CCOC(=O)C1=C(C)Oc2nc3c(c(N)c2C1c1ccc(OC)c(OC)c1)CCCCC3` (stereo unspecified) returned a logRA of -2.26.

Compound `c1ccc2c(NCCCCCCNc3c4c(nc5ccccc35)CCCC4)c3c(nc2c1)CCCC3` displayed a logRA of 2.38.

Turning to `CCOC(=O)c1c(C)nc2nc3c(c(N)c2c1-c1ccc(OC)cc1)CCC3`, the logRA is -2.02. As to `CCOC(=O)c1c(C)nc2nc3c(c(N)c2c1-c1ccc(OC)c(OC)c1)CCCCC3`, the logRA is -1.55.

`CC1=CC2Cc3nc4cc(Cl)ccc4c(NCCCCCCCCNc4c5c(nc6cc(Cl)ccc46)CCCC5)c3C(C1)C2` (stereo unspecified) displayed a logRA of 2.71.

The compound `CCOC(=O)c1c(C)nc2nc3c(c(N)c2c1-c1ccc(Cl)cc1)CCCC3` came in with a logRA of -0.859. To `CCOC(=O)C1=C(C)Oc2nc3c(c(N)c2C1c1cccc([N+](=O)[O-])c1)CCCC3` (stereo unspecified) belongs -1.16; to `Nc1c2c(nc3cc(F)ccc13)-c1ccccc1C2`, -0.681. Under `Nc1c2c(nc3ccccc13)C[S+]([O-])CC2O` (stereo unspecified) stands -0.745; under `CNc1c2c(nc3ccccc13)-c1ccccc1C2`, -0.716; under `CCOC(=O)C1=C(C)Oc2nc3c(c(N)c2C1c1ccccc1)CCCC3` (stereo unspecified), -1.08. In the case of `CCOC(=O)C1=C(C)Oc2nc3c(c(N)c2C1c1ccc(C)cc1)CCCC3` (stereo unspecified), the logRA is -1.15.

`COc1ccc2c(c1)Cc1c-2nc2ccccc2c1N` came in with a logRA of -1.42.

Compound `c1ccc2c(NCCCCCCNc3c4c(nc5ccccc35)CCCCC4)c3c(nc2c1)CCCCC3` showed a logRA of 2.19. The compound `CCOC(=O)c1c(C)nc2nc3c(c(N)c2c1-c1ccc(OC)cc1)CCCCC3` came in with a logRA of -1.02. `CCOC(=O)C1=C(C)Oc2nc3c(c(N)c2C1c1ccncc1)CCCCC3` (stereo unspecified): the logRA is -1.79. To `CCOC(=O)c1c(C)nc2nc3c(c(N)c2c1-c1cccs1)CCCC3` belongs -2.25; to `Fc1ccc2c(NCCCCCCCCNc3c4c(nc5cc(F)ccc35)CCCC4)c3c(nc2c1)CCCC3`, 2.68. Take `CCOC(=O)c1c(C)nc2nc3c(c(N)c2c1-c1ccccc1)CCCC3`: the logRA was -0.801.

`CCOC(=O)C1=C(C)Oc2nc3c(c(N)c2C1c1ccccc1)CCC3` (stereo unspecified) came in with a logRA of -1.48. With `Nc1c2c(nc3ccccc13)CSCC2=O`, the logRA is -0.745. To `CCOC(=O)c1c(C)nc2nc3c(c(N)c2c1-c1cccc(OC)c1)CCCC3` belongs -0.824; to `CC1=CC2Cc3nc4cc(Cl)ccc4c(NCCCCCCCNc4c5c(nc6cc(Cl)ccc46)CCCC5)c3C(C1)C2` (stereo unspecified), 2.79.

As for `CCOC(=O)c1c(C)nc2nc3c(c(N)c2c1-c1cccs1)CCCCC3`, the logRA was -2.01. Under `Clc1ccc2c(NCCCCCCNc3c4c(nc5cc(Cl)ccc35)CCCC4)c3c(nc2c1)CCCC3` stands 2.74. In the case of `CCOC(=O)c1c(C)nc2nc3c(c(N)c2c1-c1ccncc1)CCC3`, the logRA is -1.77. In turn, `Nc1c2c(nc3ccccc13)-c1ccccc1C2` showed a logRA of -0.435.

Compound `Fc1ccc2c(NCCCCCCCNc3c4c(nc5ccccc35)CCC4)c3c(nc2c1)CCC3` registered a logRA of 0.647. On to `CCOC(=O)c1c(C)nc2nc3c(c(N)c2c1-c1ccc(OC)c(OC)c1)CCCC3`, for which the logRA is -0.859. In turn, `CC1=CC2Cc3nc4cc(Cl)ccc4c(NCCCN(C)CCCNc4c5c(nc6ccccc46)CCCC5)c3C(C1)C2` (stereo unspecified) registered a logRA of 2.81.

Take `CCOC(=O)C1=C(C)Oc2nc3c(c(N)c2C1c1ccc(Cl)cc1)CCCC3` (stereo unspecified): the logRA is -1.17. Under `CCOC(=O)c1c(C)nc2nc3c(c(N)c2c1-c1cccs1)CCC3` stands -2.3. Consider `CC1=CC2Cc3nc4cc(Cl)ccc4c(NCCCCCCNc4c5c(nc6cc(Cl)ccc46)CCCC5)c3C(C1)C2` (stereo unspecified), for which the logRA worked out at 2.66. Under `Cc1nc2nc3c(c(N)c2c(-c2ccccc2)c1C(=O)OC(C)C)CCCC3` stands -0.824; under `CCOC(=O)c1c(C)nc2nc3c(c(N)c2c1-c1cccc([N+](=O)[O-])c1)CCCC3`, -0.713. Compound `CCOC(=O)C1=C(C)Oc2nc3c(c(N)c2C1c1ccncc1)CCC3` (stereo unspecified) registered a logRA of -1.67.

Turning to `Nc1ccc2nc3c(c(N)c2c1)Cc1ccccc1-3`, the logRA is -1.37. Under `CC1=CC2Cc3nc4cc(Cl)ccc4c(NCCCCCCNc4c5c(nc6ccccc46)CCCC5)c3C(C1)C2` (stereo unspecified) stands 2.61; under `CCOC(=O)c1c(C)nc2nc3c(c(N)c2c1-c1ccc(OC)cc1)CCCC3`, -1.84; under `CCOC(=O)C1=C(C)Oc2nc3c(c(N)c2C1c1ccccc1OC)CCCC3` (stereo unspecified), -1.63. Under `CCOC(=O)C1=C(C)Oc2nc3c(c(N)c2C1c1cccc(OC)c1)CCCCC3` (stereo unspecified) stands -1.86. Under `COc1ccc2c(c1)-c1nc3ccccc3c(N)c1C2` stands -1.24; under `COc1cccc2c1Cc1c-2nc2ccccc2c1N`, -0.806; under `Nc1c2c(nc3ccccc13)-c1ccc(Cl)cc1C2`, -1.33. For the compound `CCOC(=O)C1=C(C)Oc2nc3c(c(N)c2C1c1ccc(C#N)cc1)CCCC3` (stereo unspecified), the logRA was -1.43. `c1ccc2c(NCCCCCCCCNc3c4c(nc5ccccc35)CCCC4)c3c(nc2c1)CCCC3` had a logRA of 2.32. Under `Cc1cccc2c1Cc1c-2nc2ccccc2c1N` stands -1.19. Compound `CC1=CC2Cc3nc4cc(Cl)ccc4c(NCCCCCCCNc4c5c(nc6ccccc46)CCCC5)c3C(C1)C2` (stereo unspecified) showed a logRA of 2.78. In the case of `CCOC(=O)c1c(C)nc2nc3c(c(N)c2c1-c1ccc(F)cc1)CCCC3`, the logRA was -0.596.

`Nc1c2c(nc3cc(Cl)ccc13)-c1ccccc1C2` showed a logRA of -1.42. To `CCOC(=O)c1c(C)nc2nc3c(c(N)c2c1-c1ccccc1)CCCCC3` belongs -0.768. The compound `Nc1c2c(nc3ccccc13)CSCC2O` (stereo unspecified) registered a logRA of -0.852.
